Data: patent publication US8921405B2, “Compounds” (Orexo AB, priority 2009, dated 2014)

Biological target: T1, recombinant human mPGES-1 (Homo sapiens, UniProt O14684)
T1 construct: made in house; host or cells: Rosetta E. coli (membrane/microsome fraction)
T1 sequence (O14684 1-152): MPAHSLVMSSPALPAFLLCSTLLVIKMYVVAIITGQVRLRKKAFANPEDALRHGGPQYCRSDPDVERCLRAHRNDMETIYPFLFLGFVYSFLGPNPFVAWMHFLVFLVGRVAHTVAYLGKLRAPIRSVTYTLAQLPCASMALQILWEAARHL
Assay: mPGES-1 HTRF assay (inhibition of PGE2 formation from PGH2)
Assay type: biochemical
Conditions: compound concentration of 10 μM, HTRF assay; read-out: % inhibition
Method: The basis of the assay used is to measure the inhibition of microsomal prostaglandin E2 synthase-1 (mPGES-1) dependent prostaglandin (PG) E2 formation from PGH2 by different compounds. Thus, the formation of PGE2 is used as signal and a lowering of this signal can be interpreted as inhibition of mPGES-1. […] Microsomes from Rosetta E. coli bacteria expressing recombinant human mPGES-1 can be derived as described below: Inoculate 5 ml LB with Amp and Chloro with bacteria from freeze culture. Incubate over night at 37° C. with 200 rpm. Thereafter, inoculate 500-800 ml LB containing Amp and Chloro with the 5 ml on culture and grow to OD640 of 0.6-0.8. Chill the culture to +4° C. before induction. Induce the culture with IPTG at a final concentration of 400 μM. Express the protein at room temp 18-23° C. with 200 rpm shaking over night. The following steps can be performed on the following day: • 1. Spin down the cells in 250 ml centrifuge flasks for 15 min at 7000 rpm • 2. Dissolve the pellet from 250 ml culture in 12.5 ml homogenization buffer • 3. Disintegrate the cells by sonication, 4×10 seconds at 35% amplitude • 4. Add 2.5 ml MgCl2 (100 mM) and DNase 12.5 μl (0.8 mg/ml) and incubate on ice for 30 min • 5. Spin down the bacteria debris and save the supernatant, 7000 rpm for 15 min • 6. Isolate the protein containing membranes in the supernatant by ultracentrifugation 45000×g for 1 hour. • 7. Discard the supernatant and dissolve the pellet in 20 mM KPi buffer and aliquot the enzyme and store aliquots at −80° C. Before each experiment is performed an aliquot of the enzyme is thawed and it can then be dissolved in 0.1 M KPi pH 7.4 buffer containing 2.5 mM GSH. 50 μl of this enzyme solution is subsequently dispensed in a 384-well plate at room temperature. 0.5 μl of the inhibitor dissolved in DMSO is thereafter added to each well and incubated for 25 minutes at room temperature. Subsequently, 2 μl of PGH2 dissolved in an appropriate solvent is added to each well and after one minute at room temperature, the acidified stop solution containing FeCl2 is added. 4 μl of the total volume is transferred to a separate plate and diluted 750-fold in two separate steps before quantification of PGE2. In order to quantitate the amount of PGE2 that has been formed, a homogenous time resolved fluorescent (HTRF) detection of PGE2 can be performed by the use of a commercially available kit from CisBio essentially according to the manufacturer's protocol. […] The sealing film is thereafter removed from the NC wells. • 5 μl Eu3+-cryptate labeled anti-PGE2 can now be added to rows 1 to 24 by using a Multidrop. • The plate can now be covered with sealing film. • The plate can now be centrifuge at 1200 rpm for 1 minute and place at 4° C. overnight. After the over night incubation the fluorescence is measured by the use of an appropriate microplate reader. […] The extent of the specific HTRF is measured as a ratio of the emission intensity at 665 nm vs. that at 620 nm. A standard curve using synthetic PGE2 is used to quantify the amount of PGE2 in unknown samples. The degree of inhibition can be calculated as percent inhibition by dividing the amount of PGE2 formed in unknown samples by the amount of PGE2 formed in control samples.

Row | SMILES | inhibition at 10 µM [%]
1 | Cn1c(Nc2cc(CNC(=O)C3(C)CCCCC3)ccc2Cl)nc2cc(C(=O)NCCOC(C)(C)C)ccc21 [Example 15, N-(2-tert-Butoxyethyl)-2-{2-chloro-5-[(1-methylcyclohexylamido)methyl]phenylamino}-1-methylbenzimidazole-5-carboxamide] | 99
2 | Cn1c(Nc2cc(CNC(=O)C3(C)CCCCC3)ccc2Cl)nc2cc(C(=O)NCC3CCCCC3)ccc21 [Example 16, 2-{2-Chloro-5-[(1-methylcyclohexylamido)methyl]phenylamino}-N-cyclohexylmethyl-1-methylbenzimidazole-5-carboxamide] | 80
3 | Cn1c(Nc2cc(CNC(=O)C3(C)CCCCC3)ccc2Cl)nc2cc(C(=O)NCCN3CCCCC3)ccc21 [Example 17, 2-{2-Chloro-5-[(1-methylcyclohexylamido)methyl]phenylamino]-1-methyl-N-[2-(1-piperidinyl)ethyl]benzimidazole-5-carboxamide] | 95
4 | Cn1c(Nc2cc(CNC(=O)C3(C)CCCCC3)ccc2Cl)nc2cc(C(=O)NCC3CCCO3)ccc21 (centres unmarked) [Example 18, 2-{2-Chloro-5-[(1-methylcyclohexylamido)methyl]phenylamino]-1-methyl-N-[(2-tetrahydrofuryl)methyl]benzimidazole-5-carboxamide] | 98
5 | CN1CCCCC1CNC(=O)c1ccc2c(c1)nc(Nc1cc(CNC(=O)C3(C)CCCCC3)ccc1Cl)n2C (centres unmarked) [Example 19, 2-{2-Chloro-5-[(1-methylcyclohexylamido)methyl]phenylamino]-1-methyl-N-[(1-methyl-2-piperidinyl)methyl]benzimidazole-5-carboxamide] | 98
6 | Cn1c(Nc2cc(CNC(=O)C3(C)CCCCC3)ccc2Cl)nc2cc(C(=O)NCc3ccccn3)ccc21 [Example 20, 2-{2-Chloro-5-[(1-methylcyclohexylamido)methyl]phenylamino}-1-methyl-N-(2-pyridinylmethyl)benzimidazole-5-carboxamide] | 100
7 | Cn1c(Nc2cc(CNC(=O)C3(C)CCCCC3)ccc2Cl)nc2cc(C(=O)Nc3ccc(Br)cc3)ccc21 [Example 21, N-(4-Bromophenyl)-2-{2-chloro-5-[(1-methylcyclohexylamido)methyl]-phenylamino}-1-methylbenzimidazole-5-carboxamide] | 100
8 | CN(C(=O)c1ccc2c(c1)nc(Nc1cc(CNC(=O)C3(C)CCCCC3)ccc1Cl)n2C)C1CCCC1 [Example 22, 2-{2-Chloro-5-[(1-methylcyclohexylamido)methyl]phenylamino}-N-cyclopentyl-N,1-dimethylbenzimidazole-5-carboxamide] | 98
9 | CC1(C(=O)NCc2ccc(Cl)c(Nc3nc4cc(C(=O)NC5CCCC5)c(Cl)cc4n3C3CCCC3)c2)CCCCC1 [Example 23, 6-Chloro-2-{2-chloro-5-[(1-methylcyclohexylamido)methyl]phenylamino}-N,1-dicyclopentylbenzimidazole-5-carboxamide] | 100
10 | CC1(C(=O)NCc2ccc(Cl)c(Nc3nc4cc(Cl)c(C(=O)NC5CCCC5)cc4[nH]3)c2)CCCCC1 [Example 24, 6-Chloro-2-{2-chloro-5-[(1-methylcyclohexylamido)methyl]phenylamino}-N-cyclopentylbenzimidazole-5-carboxamide] | 97
11 | Cn1c(Nc2cc(CNC(=O)C3(C)CCCCC3)ccc2Cl)nc2cc(Cl)c(NC(=O)c3ccc(Br)cc3)cc21 [Example 25, 4-Bromo-N-(5-chloro-2-{2-chloro-5-[(1-methylcyclohexylamido)methyl]phenylamino}-1-methyl-6-benzimidazolyl)benzamide] | 99
12 | CN(C1CCCC1)S(=O)(=O)c1ccc2c(c1)nc(Nc1cc(CNC(=O)C3(C)CCCCC3)ccc1Cl)n2C [Example 26, N-{4-Chloro-3-[5-(N-cyclopentyl-N-methylsulfamoyl)-1-methyl-2-benzimidazolylamino]benzyl}-1-methylcyclohexylamide] | 100
13 | Cn1c(Nc2cc(CNC(=O)c3c(F)cccc3Cl)ccc2Cl)nc2cc(C(=O)NCC3CCCCC3)ccc21 [Example 27, 2-{2-Chloro-5-[(2-chloro-6-fluorobenzamido)methyl]phenylamino}-N-cyclohexylmethyl-1-methylbenzimidazole-5-carboxamide] | 100
14 | Cn1c(Nc2cc(CNC(=O)C3CCCO3)ccc2Cl)nc2cc(C(=O)NCC3CCCCC3)ccc21 (centres unmarked) [Example 28, 2-{2-Chloro-5-[(2-tetrahydrofurylamido)methyl]phenylamino}-N-cyclohexylmethyl-1-methylbenzimidazole-5-carboxamide] | 100
15 | Cn1c(Nc2cc(CNC(=O)C3(C(F)(F)F)CC3)ccc2Cl)nc2cc(C(=O)NCC3CCCCC3)ccc21 [Example 30, 2-{2-chloro-5-[(1-trifluoromethylcyclopropylamido)methyl]phenyl-amino}-N-cyclohexylmethyl-1-methylbenzimidazole-5-carboxamide] | 98
16 | Cn1c(Nc2cc(CNC(=O)C3(C)CCCC3)ccc2Cl)nc2cc(C(=O)NCC3CCCCC3)ccc21 [Example 31, 2-{2-Chloro-5-[(1-methylcyclopentylamido)methyl]phenylamino}-N-cyclohexylmethyl-1-methylbenzimidazole-5-carboxamide] | 99
17 | CC(=O)NCc1ccc(Cl)c(Nc2nc3cc(C(=O)NCC4CCCCC4)ccc3n2C)c1 [Example 32, 2-[5-(Acetamidomethyl)-2-chlorophenylamino]-N-cyclohexylmethyl-1-methylbenzimidazole-5-carboxamide] | 98
18 | Cn1c(Nc2cc(CNC(=O)OC(C)(C)C)ccc2Cl)nc2cc(C(=O)NCC3CCCCC3)ccc21 [Example 33] | 93
19 | Cn1c(Nc2cc(CNC(=O)OC(C)(C)C)ccc2Cl)nc2cc(C(=O)Nc3ccc(Br)cc3)ccc21 [Example 34, tert-Butyl 3-[5-(4-bromophenylcarbamoyl)-1-methyl-2-benzimidazolylamino]-4-chlorobenzylcarbamate] | 100
20 | Cn1c(Nc2cc(CNC(=O)C3CCC(F)(F)CC3)ccc2Cl)nc2cc(C(=O)Nc3ccc(Br)cc3)ccc21 [Example 35, N-(4-Bromophenyl)-2-{2-chloro-5-[(4,4-difluorocyclohexylamido)-methyl]phenylamino]-1-methylbenzimidazole-5-carboxamide] | 100
21 | Cn1c(Nc2cc(CNC(=O)c3c(F)cccc3Cl)ccc2Cl)nc2cc(C(=O)Nc3ccc(Br)cc3)ccc21 [Example 36, N-(4-Bromophenyl)-2-{2-chloro-5-[(2-chloro-6-fluorobenzamido)methyl]phenylamino}-1-methylbenzimidazole-5-carboxamide] | 100
22 | Cn1c(Nc2cc(CNC(=O)C3(C(F)(F)F)CC3)ccc2Cl)nc2cc(C(=O)Nc3ccc(Br)cc3)ccc21 [Example 37, N-(4-Bromophenyl)-2-{2-chloro-5-[(1-trifluoromethylcyclopropylamido)methyl]phenylamino}-1-methylbenzimidazole-5-carboxamide] | 100
23 | Cn1c(Nc2cc(CNC(=O)C3(C#N)CC3)ccc2Cl)nc2cc(C(=O)Nc3ccc(Br)cc3)ccc21 [Example 38, N-(4-Bromophenyl)-2-{2-chloro-5-[(1-cyanocyclopropylamido)methyl]-phenylamino}-1-methylbenzimidazole-5-carboxamide] | 100
